Among the data in ChEMBL document CHEMBL5465560, “Selectivity Literature for EUbOPEN Chemogenomic Library” (2024) are % of control, dTM and % of inhibition values, retold here.

The target in assay [1] is T1, Activin receptor type-1 (Homo sapiens) (UniProt Q04771).
T1 sequence (whole entry): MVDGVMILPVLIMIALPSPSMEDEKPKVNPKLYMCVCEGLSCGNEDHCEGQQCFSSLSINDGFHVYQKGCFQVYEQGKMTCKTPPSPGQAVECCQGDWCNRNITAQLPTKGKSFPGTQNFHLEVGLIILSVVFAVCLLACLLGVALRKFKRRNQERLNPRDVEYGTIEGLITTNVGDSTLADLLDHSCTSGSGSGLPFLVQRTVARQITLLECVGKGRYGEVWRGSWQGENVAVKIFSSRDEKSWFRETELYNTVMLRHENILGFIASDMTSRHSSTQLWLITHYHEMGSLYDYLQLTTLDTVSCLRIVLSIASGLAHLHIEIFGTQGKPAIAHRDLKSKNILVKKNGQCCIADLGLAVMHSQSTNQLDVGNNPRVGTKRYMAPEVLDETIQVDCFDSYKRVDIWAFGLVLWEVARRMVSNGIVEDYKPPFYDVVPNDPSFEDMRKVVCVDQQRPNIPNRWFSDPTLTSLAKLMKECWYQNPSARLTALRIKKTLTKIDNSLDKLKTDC
To be noted: at 10 µM.

Assay [2] deals with T2, Serine/threonine-protein kinase 17A (Homo sapiens) (UniProt Q9UEE5).
T2 sequence (whole entry): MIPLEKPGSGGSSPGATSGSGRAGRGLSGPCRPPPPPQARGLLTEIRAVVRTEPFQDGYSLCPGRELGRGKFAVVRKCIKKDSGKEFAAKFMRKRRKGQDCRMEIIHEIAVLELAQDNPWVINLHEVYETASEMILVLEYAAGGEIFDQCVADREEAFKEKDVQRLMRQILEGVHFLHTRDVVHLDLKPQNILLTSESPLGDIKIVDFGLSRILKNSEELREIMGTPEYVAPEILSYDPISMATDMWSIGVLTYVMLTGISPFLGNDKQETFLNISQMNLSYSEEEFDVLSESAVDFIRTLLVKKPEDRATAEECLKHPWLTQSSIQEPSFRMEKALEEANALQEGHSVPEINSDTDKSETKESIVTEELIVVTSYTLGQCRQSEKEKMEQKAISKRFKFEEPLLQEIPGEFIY
Put plainly: Selectivity interaction (Kinase panel (DSF assay)) EUB0001558a STK17A.

Another assay addresses Aurora kinase B (Homo sapiens, UniProt Q96GD4). Put plainly: Selectivity interaction (ActivX KiNativ screen (kinase selectivity in THP-1 cell lysates)) EUB0000639a AURKB. As to conditions: lysate. The format is subcellular.
The target in assay [3] is Serine/threonine-protein kinase Nek7 (Homo sapiens) (UniProt Q8TDX7). Put plainly: Selectivity interaction (ActivX KiNativ screen (kinase selectivity in THP-1 cell lysates)) EUB0000639a NEK7. It is filed as subcellular. To be noted: lysate, at 0.04 µM.
The target in assay [4] is T3, Tyrosine-protein kinase JAK3 (Homo sapiens) (UniProt P52333).
T3 sequence (whole entry): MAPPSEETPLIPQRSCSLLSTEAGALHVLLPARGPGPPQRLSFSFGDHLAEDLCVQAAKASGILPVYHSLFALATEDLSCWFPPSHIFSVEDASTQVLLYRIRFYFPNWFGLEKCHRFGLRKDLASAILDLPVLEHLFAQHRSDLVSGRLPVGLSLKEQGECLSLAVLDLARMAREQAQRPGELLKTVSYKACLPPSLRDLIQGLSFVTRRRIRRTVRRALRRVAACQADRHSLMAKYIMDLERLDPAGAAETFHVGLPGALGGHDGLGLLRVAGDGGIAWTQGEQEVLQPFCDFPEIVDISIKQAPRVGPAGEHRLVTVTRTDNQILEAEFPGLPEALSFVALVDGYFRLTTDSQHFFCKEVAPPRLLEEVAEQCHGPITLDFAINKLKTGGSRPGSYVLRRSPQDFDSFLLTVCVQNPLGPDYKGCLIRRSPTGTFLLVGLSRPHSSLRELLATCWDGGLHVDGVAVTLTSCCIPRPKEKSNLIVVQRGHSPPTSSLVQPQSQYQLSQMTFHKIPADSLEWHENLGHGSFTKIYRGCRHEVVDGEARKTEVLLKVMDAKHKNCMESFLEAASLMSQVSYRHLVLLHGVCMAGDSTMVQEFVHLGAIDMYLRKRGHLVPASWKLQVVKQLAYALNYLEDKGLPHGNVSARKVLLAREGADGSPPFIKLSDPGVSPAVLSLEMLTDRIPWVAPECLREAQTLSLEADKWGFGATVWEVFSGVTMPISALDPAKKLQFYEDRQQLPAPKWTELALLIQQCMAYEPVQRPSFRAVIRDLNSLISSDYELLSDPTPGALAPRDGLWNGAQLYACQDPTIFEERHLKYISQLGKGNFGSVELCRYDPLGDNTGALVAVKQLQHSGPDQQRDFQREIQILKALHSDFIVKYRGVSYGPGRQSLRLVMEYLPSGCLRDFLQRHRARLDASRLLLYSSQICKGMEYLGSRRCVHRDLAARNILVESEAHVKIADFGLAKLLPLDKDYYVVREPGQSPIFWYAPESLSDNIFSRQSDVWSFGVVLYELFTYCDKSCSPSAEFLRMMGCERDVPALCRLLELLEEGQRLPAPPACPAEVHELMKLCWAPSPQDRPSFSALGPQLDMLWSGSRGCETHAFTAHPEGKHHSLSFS
Put plainly: Selectivity interaction (Upstate Kinase Profiler service (Millipore)) EUB0000056c JAK3. As to conditions: at 1 µM.

Chain of Aurora kinase B (Q96GD4 whole entry): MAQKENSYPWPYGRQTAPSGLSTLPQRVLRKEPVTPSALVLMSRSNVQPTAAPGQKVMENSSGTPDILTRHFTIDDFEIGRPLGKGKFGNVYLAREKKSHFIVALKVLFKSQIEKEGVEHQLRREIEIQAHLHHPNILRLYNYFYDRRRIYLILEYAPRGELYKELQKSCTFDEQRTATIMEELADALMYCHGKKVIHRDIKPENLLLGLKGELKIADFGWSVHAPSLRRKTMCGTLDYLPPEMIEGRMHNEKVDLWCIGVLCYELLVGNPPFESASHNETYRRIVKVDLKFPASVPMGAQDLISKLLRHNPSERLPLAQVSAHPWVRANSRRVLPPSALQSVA
Chain of Serine/threonine-protein kinase Nek7 (Homo sapiens) (Q8TDX7 whole entry, looked up): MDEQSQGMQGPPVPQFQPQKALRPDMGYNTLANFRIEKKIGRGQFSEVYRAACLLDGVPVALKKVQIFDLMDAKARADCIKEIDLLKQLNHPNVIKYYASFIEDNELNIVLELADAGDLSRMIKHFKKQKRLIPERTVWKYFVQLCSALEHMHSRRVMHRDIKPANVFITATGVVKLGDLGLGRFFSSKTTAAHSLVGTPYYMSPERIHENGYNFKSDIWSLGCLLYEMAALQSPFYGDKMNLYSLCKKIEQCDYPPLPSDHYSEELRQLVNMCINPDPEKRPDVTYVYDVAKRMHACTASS

Turning to `Cc1cc([C@@H](C)Nc2ccccc2C(=O)O)c2nc(N3CCOCC3)cc(=O)n2c1` [AZD-6482], the % of control in assay [1] is 98%.

As for `CC(C)(O)[C@H](F)CN1Cc2cc(NC(=O)c3cnn4cccnc34)c(N3CCOCC3)cc2C1=O`, the dTM in assay [2] amounted to 0.9 K.

On to `CC[C@@H]1[C@H](F)C(=O)N[C@@H]1COc1nccc2cc(C(N)=O)c(OC)cc12` [ZIMLOVISERTIB], for which the % of inhibition is 9.7% at Aurora kinase B (at 0.01 µM); 3.4% on Aurora kinase B (at 0.04 µM); 11.1% at Aurora kinase B (at 0.2 µM); 32.2% on Aurora kinase B (at 1 µM); 63.1% at Aurora kinase B (at 5 µM); 1.5% in assay [3].

In assay [4], `Cc1ccc(-c2ccc3c(ccc4sc5c(c43)NC[C@@H](C)NC5=O)n2)cn1` returned a % of inhibition of 4%.
